In publication PMC10252614 (International Journal of Molecular Sciences, 2023):

Tests used:
[1] = target: T1, GluN1/GluN2B receptor (Homo sapiens, UniProt Q05586+Q13224); experiment: whole-cell patch-clamp on HEK293 cells expressing GluN1/GluN2B NMDAR; assay type: cell-based; settings: HEK293, 10 µM, −60 mV, ± SEM (n = 5–6), 100% = full inhibition; read-out: Relative inhibition (RI) of GluN1/GluN2B NMDAR
T1 construct: expressed in transfected cells; host or cells: HEK293
Protocol: We tested the derivatives by the whole-cell patch-clamp method at a concentration of 10 μM under steady-state conditions in the presence of the saturating concentrations of NMDAR (co-)agonists (L-glutamate and glycine). […] Whole-cell patch-clamp recordings were performed using an Axopatch 200B amplifier (Molecular Devices, LLC., San Jose, CA, USA) at a holding membrane potential of −60 mV. HEK293 cells were co-transfected with DNA vectors encoding human versions of the GluN1-4a (GluN1) and GluN2B subunits and green fluorescent protein (GFP) in a 1:1:1 ratio using 0.9 μL PolyMag reagent (OZ Biosciences SAS, Marseille, France) in 50 μL Opti-MEM I [56, 57]. After 15 min on a magnetic plate, HEK293 cells were trypsinized and resuspended in Opti-MEM I medium containing 1% FBS, 2 mM MgCl2 and 3 mM kynurenic acid (to reduce cell death caused by activation of NMDARs). Electrophysiological measurements were performed 24–48 h after completion of transfection at room temperature. The extracellular recording solution (ECS) contained (in mM): 160 NaCl, 2.5 KCl, 10 HEPES, 10 D-glucose, 0.2 EDTA, and 0.7 CaCl2 (pH 7.3 with NaOH). […] A microprocessor-controlled rapid perfusion system with a time constant for solution exchange around the recorded cell of ~20 ms was used. Currents were low-pass filtered at 2 kHz using an eight-pole Bessel filter, digitized at 5 kHz, and recorded using the pCLAMP 10 program (Molecular Devices, LLC., San Jose, CA, USA). The co-agonist glycine (100 µM) was applied throughout the recording, and the agonist L-glutamate (1 mM) was used to elicit responses of GluN1/GluN2B receptors.

[2] = target: T2, human BChE (hBChE) (Homo sapiens, UniProt P06276); experiment: hBChE inhibition, modified Ellman's method; assay type: biochemical; settings: 10^-6 M
T2 construct: made in house
Protocol: (§1) N-Methylpropargylamine-quinazolines were tested for their inhibitory potency against human AChE (hAChE) and human BChE (hBChE) enzymes using the modified spectrophotometric method of Ellman et al..
(§2) The human recombinant BChE and AChE were prepared at the Department of Toxicology and Military Pharmacy (Faculty of Military Health Sciences, Hradec Kralove, Czech Republic). 5,5′-dithiobis(2-nitrobenzoic acid) (Ellman’s reagent, DTNB), phosphate buffer (PB, pH 7.4), acetylthiocholine (ATC) and butyrylthiocholine (BTC), were purchased from Sigma-Aldrich, Prague, Czech Republic. For measuring purposes, polystyrene Nunc 96-well microplates with a flat-bottom shape (ThermoFisher Scientific, Waltham, MA, USA) were utilized. All the assays were carried out in 0.1 M KH2PO4/K2HPO4 buffer, pH 7.4. Enzyme solutions were prepared at 2.0 units/mL in 2 mL aliquots. The assay medium consisted of a 0.1 M phosphate buffer (pH 7.4), 0.01 M DTNB, the enzyme, and 0.01 M substrate (ATC/BTC iodide solution). Concentration 1 µM was tested and the % of inhibition was calculated. Tested compounds were pre-incubated for 5 min. The reaction was started by immediate addition of 20 μL of the substrate. […] Each concentration was assayed in triplicate. Software GraphPad Prism 5 (San Diego, CA, USA) was used for the statistical data evaluation.

[3] = target: T3, human AChE (hAChE) (Homo sapiens, UniProt P22303); experiment: hAChE inhibition, modified Ellman's method; assay type: biochemical; settings: read-out: % of AChE inhibition
T3 construct: made in house
Protocol: as §1, §2

[4] = in vitro; settings: human

T2 sequence (P06276 29-602): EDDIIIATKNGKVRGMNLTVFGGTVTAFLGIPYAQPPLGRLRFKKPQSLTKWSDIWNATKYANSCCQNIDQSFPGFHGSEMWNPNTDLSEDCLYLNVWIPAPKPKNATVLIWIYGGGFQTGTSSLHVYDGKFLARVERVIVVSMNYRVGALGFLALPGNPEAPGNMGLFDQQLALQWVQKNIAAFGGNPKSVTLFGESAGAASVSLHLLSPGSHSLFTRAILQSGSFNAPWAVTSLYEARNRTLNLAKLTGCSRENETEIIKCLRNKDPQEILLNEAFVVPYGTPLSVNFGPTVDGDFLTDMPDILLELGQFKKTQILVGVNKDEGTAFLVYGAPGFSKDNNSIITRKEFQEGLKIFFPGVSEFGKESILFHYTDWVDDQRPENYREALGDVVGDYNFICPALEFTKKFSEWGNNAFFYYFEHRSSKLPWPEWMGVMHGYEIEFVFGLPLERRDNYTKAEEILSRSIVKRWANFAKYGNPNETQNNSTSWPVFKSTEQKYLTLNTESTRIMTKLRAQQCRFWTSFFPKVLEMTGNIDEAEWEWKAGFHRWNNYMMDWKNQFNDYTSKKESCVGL
T3 sequence (P22303 32-614): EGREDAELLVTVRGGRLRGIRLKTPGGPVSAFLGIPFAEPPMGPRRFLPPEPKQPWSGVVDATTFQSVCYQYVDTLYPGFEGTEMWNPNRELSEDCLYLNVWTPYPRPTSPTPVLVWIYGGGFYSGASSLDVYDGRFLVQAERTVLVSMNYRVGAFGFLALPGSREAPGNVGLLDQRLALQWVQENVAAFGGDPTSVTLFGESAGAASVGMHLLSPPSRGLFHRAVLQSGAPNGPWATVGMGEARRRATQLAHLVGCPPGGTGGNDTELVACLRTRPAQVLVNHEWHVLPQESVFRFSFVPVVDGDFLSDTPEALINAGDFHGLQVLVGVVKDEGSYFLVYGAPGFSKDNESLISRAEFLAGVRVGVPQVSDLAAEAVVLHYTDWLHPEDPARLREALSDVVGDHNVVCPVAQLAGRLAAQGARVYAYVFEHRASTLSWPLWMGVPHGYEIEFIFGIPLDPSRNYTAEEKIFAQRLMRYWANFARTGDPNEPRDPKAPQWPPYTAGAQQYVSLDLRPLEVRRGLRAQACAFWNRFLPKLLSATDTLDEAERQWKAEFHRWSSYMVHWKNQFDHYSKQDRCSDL
T1 sequence (Q13224 27-1484, other chains not shown): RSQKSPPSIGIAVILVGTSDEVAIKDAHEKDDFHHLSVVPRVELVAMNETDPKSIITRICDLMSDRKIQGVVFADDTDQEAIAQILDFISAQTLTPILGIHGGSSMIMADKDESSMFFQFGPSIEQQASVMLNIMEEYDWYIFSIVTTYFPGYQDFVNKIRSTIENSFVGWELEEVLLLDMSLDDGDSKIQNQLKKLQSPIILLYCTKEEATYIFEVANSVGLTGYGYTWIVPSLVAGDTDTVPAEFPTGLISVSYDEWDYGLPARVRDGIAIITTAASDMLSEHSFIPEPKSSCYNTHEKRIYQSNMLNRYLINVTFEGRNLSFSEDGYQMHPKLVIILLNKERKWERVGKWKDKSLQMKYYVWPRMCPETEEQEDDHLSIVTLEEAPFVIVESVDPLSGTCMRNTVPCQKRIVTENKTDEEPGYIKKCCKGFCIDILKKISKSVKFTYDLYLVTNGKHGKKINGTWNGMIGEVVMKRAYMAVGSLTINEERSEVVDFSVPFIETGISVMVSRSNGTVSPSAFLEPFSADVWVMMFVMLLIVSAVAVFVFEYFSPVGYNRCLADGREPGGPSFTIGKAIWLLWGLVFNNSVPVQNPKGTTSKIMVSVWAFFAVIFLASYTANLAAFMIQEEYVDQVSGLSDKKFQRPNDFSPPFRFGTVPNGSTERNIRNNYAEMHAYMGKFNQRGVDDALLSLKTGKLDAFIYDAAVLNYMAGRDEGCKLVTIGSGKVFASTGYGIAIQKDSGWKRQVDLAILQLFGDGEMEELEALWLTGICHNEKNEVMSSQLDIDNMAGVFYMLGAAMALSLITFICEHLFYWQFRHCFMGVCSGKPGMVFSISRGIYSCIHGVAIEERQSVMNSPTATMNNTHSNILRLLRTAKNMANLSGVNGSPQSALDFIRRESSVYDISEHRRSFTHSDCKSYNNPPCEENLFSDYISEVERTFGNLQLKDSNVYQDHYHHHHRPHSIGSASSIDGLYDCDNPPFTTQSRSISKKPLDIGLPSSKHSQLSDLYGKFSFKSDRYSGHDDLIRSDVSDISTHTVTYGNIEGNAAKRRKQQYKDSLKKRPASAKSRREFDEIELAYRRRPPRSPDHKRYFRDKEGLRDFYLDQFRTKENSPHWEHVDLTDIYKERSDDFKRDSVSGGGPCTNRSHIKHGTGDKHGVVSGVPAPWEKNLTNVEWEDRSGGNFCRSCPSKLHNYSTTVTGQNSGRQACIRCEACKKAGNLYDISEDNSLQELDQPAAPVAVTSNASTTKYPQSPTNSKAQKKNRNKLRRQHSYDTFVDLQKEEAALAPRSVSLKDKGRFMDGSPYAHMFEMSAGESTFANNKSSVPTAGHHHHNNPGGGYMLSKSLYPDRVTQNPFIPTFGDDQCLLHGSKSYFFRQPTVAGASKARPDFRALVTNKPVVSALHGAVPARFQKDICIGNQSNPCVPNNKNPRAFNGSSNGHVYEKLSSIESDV

SMILES | inhibition at 10 µM [1] | inhibition at 1 µM [2] | inhibition at 1 µM [3] | IC50 at 24 h [4]
COc1ccc2nc3c(c(N)c2c1)CCCC3 [7-MEOTA, reference compound] | ~60% | 18% | – | –
C#CCN(C)c1nc(N)c2ccccc2n1 [I-6a, N2-methyl-N2-(prop-2-yn-1-yl)quinazoline-2,4-diamine] | – | 0% | 5% | –
C#CCN(C)c1nc(NC)c2ccccc2n1 [I-6b, N2,N4-dimethyl-N2-(prop-2-yn-1-yl)quinazoline-2,4-diamine] | – | 3% | 5% | –
C#CCN(C)c1nc(NCC)c2ccccc2n1 [I-6c, N4-ethyl-N2-methyl-N2-(prop-2-yn-1-yl)quinazoline-2,4-diamine] | – | 0% | 4% | –
C#CCN(C)c1nc(NC(C)C)c2ccccc2n1 [I-6d, N2-methyl-N2-(prop-2-yn-1-yl)-N4-(propan-2-yl)quinazoline-2,4-diamine] | – | 1% | 4% | –
C#CCN(C)c1nc(NCCOC)c2ccccc2n1 [I-6f, N4-(2-methoxyethyl)-N2-methyl-N2-(prop-2-yn-1-yl)quinazoline-2,4-diamine] | – | 1% | 5% | –
C#CCN(C)c1nc(NC2CC2)c2ccccc2n1 [I-6g, N4-cyclopropyl-N2-methyl-N2-(prop-2-yn-1-yl)quinazoline-2,4-diamine] | – | 2% | 4% | –
C#CCN(C)c1nc(N)c2ccc(Cl)cc2n1 [II-6a, 7-chloro-N2-methyl-N2-(prop-2-yn-1-yl)quinazoline-2,4-diamine] | – | 2% | 7% | –
C#CCN(C)c1nc(NC)c2ccc(Cl)cc2n1 [II-6b, 7-chloro-N2,N4-dimethyl-N2-(prop-2-yn-1-yl)quinazoline-2,4-diamine] | – | 2% | 15% | –
C#CCN(C)c1nc(NCC)c2ccc(Cl)cc2n1 [II-6c, 7-chloro-N4-ethyl-N2-methyl-N2-(prop-2-yn-1-yl)quinazoline-2,4-diamine] | – | 0% | 4% | –
C#CCN(C)c1nc(NC(C)C)c2ccc(Cl)cc2n1 [II-6d, 7-chloro-N2-methyl-N2-(prop-2-yn-1-yl)-N4-(propan-2-yl)quinazoline-2,4-diamine] | – | 3% | 1% | –
C#CCN(C)c1nc(NCCOC)c2ccc(Cl)cc2n1 [II-6f, 7-chloro-N4-(2-methoxyethyl)-N2-methyl-N2-(prop-2-yn-1-yl)quinazoline-2,4-diamine] | – | 2% | 9% | –
C#CCN(C)c1nc(NC2CC2)c2ccc(Cl)cc2n1 [II-6g, 7-chloro-N4-cyclopropyl-N2-methyl-N2-(prop-2-yn-1-yl)quinazoline-2,4-diamine] | – | 0% | 4% | –
C#CCN(C)c1nc(NC)c2cc(OC)ccc2n1 [III-6b, 6-methoxy-N2,N4-dimethyl-N2-(prop-2-yn-1-yl)quinazoline-2,4-diamine] | – | 1% | 4% | –
C#CCN(C)c1nc(NCC)c2cc(OC)ccc2n1 [III-6c, N4-ethyl-6-methoxy-N2-methyl-N2-(prop-2-yn-1-yl)quinazoline-2,4-diamine] | – | 2% | 7% | –
C#CCN(C)c1nc(NC(C)C)c2cc(OC)ccc2n1 [III-6d, 6-methoxy-N2-methyl-N2-(prop-2-yn-1-yl)-N4-(propan-2-yl)quinazoline-2,4-diamine] | – | 2% | 2% | –
C#CCN(C)c1nc(NCCCC)c2cc(OC)ccc2n1 [III-6e, N4-butyl-6-methoxy-N2-methyl-N2-(prop-2-yn-1-yl)quinazoline-2,4-diamine] | – | 1% | 8% | –
C#CCN(C)c1nc(NCCOC)c2cc(OC)ccc2n1 [III-6f, 6-methoxy-N4-(2-methoxyethyl)-N2-methyl-N2-(prop-2-yn-1-yl)quinazoline-2,4-diamine] | – | 1% | 6% | –
C#CCN(C)c1nc(NC2CC2)c2cc(OC)ccc2n1 [III-6g, N4-cyclopropyl-6-methoxy-N2-methyl-N2-(prop-2-yn-1-yl)quinazoline-2,4-diamine] | – | 0% | 5% | –
C#CCN(C)c1nc(NC2CCCCC2)c2cc(OC)ccc2n1 [III-6h, N4-cyclohexyl-6-methoxy-N2-methyl-N2-(prop-2-yn-1-yl)quinazoline-2,4-diamine] | – | 2% | 3% | –
Nc1c2c(nc3ccccc13)CCCC2 [THA, tacrine, reference compound] | – | – | – | 122.11 ± 0.02 µM
